The values below are quoted from earlier work in PMC8683664 (International Journal of Pharmaceutics: X, 2021).

For orientation: EC50 means the concentration giving half of the maximal effect.

Data set [1] relates to SARS-CoV-2. To be noted: 2020; for EC50 in Calu-3 2B4 cells: value in brackets ref Pruijssers et al.; for EC50: read-out: EC50 in Calu-3 2B4 cells, Calu-3 2B4 cells ref Pruijssers et al.
The test system of a further data set is SAR-CoV-2. To be noted: human airway epithelial (HAE) cells, value in brackets ref Agostini et al., 2018.
The next data set has as its system severe COVID-19 patients. To be noted: 10-day course, placebo 15 days ref Beigel et al., 2020.
For data set [2], the system named is SARS-CoV-2. As to conditions: read-out: EC50 in Calu-3; continuous human lung epithelial cell line (Calu-3), prescribing information of Veklury ref Gilead Sciences, Inc., 2020.

≈ marks a conversion by molar mass, not a printed value. Where two headings read alike, the source gives them in different places.

Consider `N#C[C@@]1(c2ccc3c(N)ncnn23)O[C@H](CO)[C@@H](O)[C@H]1O` [GS-441524], for which, in the data set on SARS-CoV-2 [1], the “EC50 in Calu-3 2B4 cells” value is 0.1806 µg/mL (≈ 0.62 µM) and the EC50 is 620 nM. The “EC50 against SAR-CoV-2 in HAE” value in the data set with SAR-CoV-2 is 0.05243 µg/mL (≈ 0.18 µM).
Take `CCC(CC)COC(=O)[C@H](C)N[P@](=O)(OC[C@H]1O[C@@](C#N)(c2ccc3c(N)ncnn23)[C@H](O)[C@@H]1O)Oc1ccccc1` [remdesivir]: in the data set with SARS-CoV-2 [1], the “EC50 in Calu-3 2B4 cells” value is 0.16873 µg/mL (≈ 0.28 µM) and the concentration for a half-maximal effect (EC50) was 280 nM. The recovery time in the data set on severe COVID-19 patients is listed as 11 days. Also, in the data set with SARS-CoV-2 [2], the EC50 is 280 nM. The “EC50 against SAR-CoV-2 in HAE” value in the data set with SAR-CoV-2 was 0.04218 µg/mL (≈ 0.07 µM).
